Values quoted from earlier work as cited in patent US7763563B2, “Niobium compounds and hydrates thereof, formulations containing the same, and methods of providing specifications therefor” (H. C. Starck GmbH, priority 2006, dated 2010).

Settings: prior art compounds, Limar et al.

In the case of (NH4)3[Nb(O)(C2O4)3]*x H2O, the water solubility is listed as 40 g Nb/1.
